Reference: patent publication US20230416294A1, “DECITABINE ANALOGS FOR IMMUNOLOGICAL AND ONCOLOGICAL THERAPY” (The Johns Hopkins University, priority 2020, published 2023)
Read-outs that look alike come from different tables or passages of the source.

Legend:
[1] = tested on: eosinophilic inflammation; test: asthma model; settings: in vivo
[2] = tested on: Regulatory T cell (Tregs); test: Treg functional assay for efficacy; format: cell-based, Murine; settings: dose response
Procedure: A functional assay was developed to identify a compound that can augment Regulatory T cell (Tregs) suppressive function. Tregs are the major regulators of the immune systems and are paramount in transplant tolerance and in autoimmune and inflammatory diseases. Current hypomethylating drugs such as decitabine (DAC) can augment Treg function, but carry significant side effects and cytotoxicity. Murine Tregs were isolated from spleens using magnetic beads (Miltenyi). […] Tregs were cultured for 48 hrs in the presence of anti-CD3, anti CD28 and IL-2+/−equimolar concentrations decitabine and analogs. After 48 hrs, Tregs were analyzed for suppressive phenotype using Foxp3 expression (master transcription factor) and relative proliferation (Ki-67 expression).

influenza = influenza model; settings: in vivo
lung allograft rejection = test: lung allograft rejection; settings: in vivo
Mouse CD4+ T cells = test: regulatory T cell phenotype and function in cultured CD4+ T cells; format: cell-based; settings: Mouse CD4+ T cells cultured for 3 days +/−DAC or MK-923
Procedure: Mouse CD4+ T cells were cultured for 3 days +/−DAC or MK-923;

[3] = toxicity of nebulized compound versus DAC; format: in vivo
DU145 cancer cells = test: DAC incorporation into genomic DNA and DNA demethylation in DU145 cells; format: cell-based; settings: DU145 cancer cells treated with a dose response of MK-923
Procedure: DU145 cancer cells were treated with a dose response of MK-923, and the degree of 5-aza-2′deoxycytidine (DAC) (Blue line, left axis), and DNA demethylation (orange line, right axis), was measured.

[4] = tested on: acute lung injury induced by lipopolysaccharide (LPS); settings: in vivo
[5] = tested on: bacterial-induced lung injury; test: bacterial-induced lung injury model, nebulized compound; format: in vivo; settings: (1 mg/kg DAC)
[6] = lung delivery versus plasma after nebulization in LPS lung injury model; format: in vivo; settings: inhaled, nebulized, read-out: enhanced lung delivery versus plasma
cytidine deaminase (CDA) = cytidine deaminase (CDA) (Homo sapiens, UniProt P32320); test: stability to cytidine deaminase (CDA); format: in vitro ADME
Sequence of cytidine deaminase (CDA) (P32320 whole entry, species assumed): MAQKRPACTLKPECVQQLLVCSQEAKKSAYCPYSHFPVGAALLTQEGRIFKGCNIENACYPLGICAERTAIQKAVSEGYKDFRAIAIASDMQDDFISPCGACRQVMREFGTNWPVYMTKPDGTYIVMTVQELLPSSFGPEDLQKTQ

Nc1ncn([C@H]2C[C@H](O)[C@@H](CO)O2)c(=O)n1 [decitabine, 5-aza-2′-deoxycytidine]
eosinophilic inflammation in an asthma model [1]: potently abrogates eosinophilic inflammation
increase in Tregs [2]: dose-dependent increase
ongoing inflammation in an influenza model (influenza): rescues ongoing inflammation
lung allograft rejection (lung allograft rejection): improves lung allograft rejection
enhancing regulatory T cell (Tregs) phenotype and function (Mouse CD4+ T cells): equipotent

CN1CCC/C1=N/c1ncn([C@H]2C[C@H](O)[C@@H](CO)O2)c(=O)n1 [MK-923]
toxicity versus DAC [3]: improved toxicity versus DAC
5-aza-2′deoxycytidine (DAC) incorporation into genomic DNA (DU145 cancer cells): dose responsive increase
DNA Cytosine methylation (DU145 cancer cells): decrease
therapeutic index versus DAC [4]: enhanced therapeutic index versus DAC
toxicity in LPS lung injury model [4]: without overt toxicity
efficacy in bacterial-induced lung injury [5]: rescues bacterial-induced lung injury
hematological toxicity [5]: reduced hematological toxicity
Kp [6]: 6
enhancing regulatory T cell (Tregs) phenotype and function (Mouse CD4+ T cells): equipotent

CN(C)/C=N\c1ncn([C@H]2C[C@H](O)[C@@H](CO)O2)c(=O)n1 [MK-890, N^4-Dimethylaminomethylene derivative]
stability to cytidine deaminase (CDA) (cytidine deaminase (CDA); +/−tetrahydrouridine): stable

O=c1nc(/N=C/N2CCCC2)ncn1[C@H]1C[C@H](O)[C@@H](CO)O1 [MK-911]
increase in Tregs [2]: dose-dependent increase
stability to cytidine deaminase (CDA) (cytidine deaminase (CDA)): stable
